Laboratory results from patent US8192962B2, “Processes for detecting toxic substances” (Daikin Industries, Ltd., priority 2001, dated 2012).

System: Stress protein genes
Assay: DNA chip mRNA expression in yeast, stress protein genes (Table 6)
Assay type: cell-based, Saccharomyces cerevisiae S288C
Method in brief: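 Value is the scanned fluorescence intensity ratio of exposed versus chemical-free cells. Log-phase S288C yeast in YPD at 25° C. received one toxic substance for two hours, dosed to slow growth without killing; Cy3/Cy5-labeled cDNA from oligo-dT-purified mRNA was hybridized to a whole-genome chip at 65° C.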

Na2As [(1)]
The level of expressed mRNA in the presence of chemical substance/The level of expressed mRNA in the absence of chemical substance (yeast gene YAL005C): 0.6
The level of expressed mRNA in the presence of chemical substance/The level of expressed mRNA in the absence of chemical substance (yeast gene YAL015C): 1.2
The level of expressed mRNA in the presence of chemical substance/The level of expressed mRNA in the absence of chemical substance (yeast gene YBL075C): 1.3
The level of expressed mRNA in the presence of chemical substance/The level of expressed mRNA in the absence of chemical substance (yeast gene YBL093C): 1.0
The level of expressed mRNA in the presence of chemical substance/The level of expressed mRNA in the absence of chemical substance (yeast gene YBR044C): 0.8
The level of expressed mRNA in the presence of chemical substance/The level of expressed mRNA in the absence of chemical substance (yeast gene YBR054W): 1.9
The level of expressed mRNA in the presence of chemical substance/The level of expressed mRNA in the absence of chemical substance (yeast gene YBR067C): 1.6
The level of expressed mRNA in the presence of chemical substance/The level of expressed mRNA in the absence of chemical substance (yeast gene YBR072W): 18.5
The level of expressed mRNA in the presence of chemical substance/The level of expressed mRNA in the absence of chemical substance (yeast gene YBR126C): 0.8
The level of expressed mRNA in the presence of chemical substance/The level of expressed mRNA in the absence of chemical substance (yeast gene YBR169C): 1.0
The level of expressed mRNA in the presence of chemical substance/The level of expressed mRNA in the absence of chemical substance (yeast gene YCL035C): 2.0
The level of expressed mRNA in the presence of chemical substance/The level of expressed mRNA in the absence of chemical substance (yeast gene YCR021C): 5.2
The level of expressed mRNA in the presence of chemical substance/The level of expressed mRNA in the absence of chemical substance (yeast gene YCR083W): 1.1
The level of expressed mRNA in the presence of chemical substance/The level of expressed mRNA in the absence of chemical substance (yeast gene YDL022W): 0.9
The level of expressed mRNA in the presence of chemical substance/The level of expressed mRNA in the absence of chemical substance (yeast gene YDL025C): 1.7
The level of expressed mRNA in the presence of chemical substance/The level of expressed mRNA in the absence of chemical substance (yeast gene YDR033W): 1.1
The level of expressed mRNA in the presence of chemical substance/The level of expressed mRNA in the absence of chemical substance (yeast gene YDR077W): 1.2
The level of expressed mRNA in the presence of chemical substance/The level of expressed mRNA in the absence of chemical substance (yeast gene YDR098C): 0.8
The level of expressed mRNA in the presence of chemical substance/The level of expressed mRNA in the absence of chemical substance (yeast gene YDR155C): 1.1
The level of expressed mRNA in the presence of chemical substance/The level of expressed mRNA in the absence of chemical substance (yeast gene YDR258C): 1.6
The level of expressed mRNA in the presence of chemical substance/The level of expressed mRNA in the absence of chemical substance (yeast gene YDR293C): 0.9
The level of expressed mRNA in the presence of chemical substance/The level of expressed mRNA in the absence of chemical substance (yeast gene YDR436W): 0.9
The level of expressed mRNA in the presence of chemical substance/The level of expressed mRNA in the absence of chemical substance (yeast gene YDR513W): 2.2
The level of expressed mRNA in the presence of chemical substance/The level of expressed mRNA in the absence of chemical substance (yeast gene YDR519W): 1.3
The level of expressed mRNA in the presence of chemical substance/The level of expressed mRNA in the absence of chemical substance (yeast gene YEL030W): 0.7
The level of expressed mRNA in the presence of chemical substance/The level of expressed mRNA in the absence of chemical substance (yeast gene YEL039C): 1.1
The level of expressed mRNA in the presence of chemical substance/The level of expressed mRNA in the absence of chemical substance (yeast gene YER042W): 3.0
The level of expressed mRNA in the presence of chemical substance/The level of expressed mRNA in the absence of chemical substance (yeast gene YER057C): 1.2
The level of expressed mRNA in the presence of chemical substance/The level of expressed mRNA in the absence of chemical substance (yeast gene YER103W): 0.7
The level of expressed mRNA in the presence of chemical substance/The level of expressed mRNA in the absence of chemical substance (yeast gene YER125W): 0.6
The level of expressed mRNA in the presence of chemical substance/The level of expressed mRNA in the absence of chemical substance (yeast gene YFL014W): 3.4
The level of expressed mRNA in the presence of chemical substance/The level of expressed mRNA in the absence of chemical substance (yeast gene YFL016C): 0.8
The level of expressed mRNA in the presence of chemical substance/The level of expressed mRNA in the absence of chemical substance (yeast gene YFL020C): 1.0
The level of expressed mRNA in the presence of chemical substance/The level of expressed mRNA in the absence of chemical substance (yeast gene YFR052W): 1.1
The level of expressed mRNA in the presence of chemical substance/The level of expressed mRNA in the absence of chemical substance (yeast gene YGL073W): 1.0
The level of expressed mRNA in the presence of chemical substance/The level of expressed mRNA in the absence of chemical substance (yeast gene YGL115W): 0.9
The level of expressed mRNA in the presence of chemical substance/The level of expressed mRNA in the absence of chemical substance (yeast gene YGL181W): 0.9
The level of expressed mRNA in the presence of chemical substance/The level of expressed mRNA in the absence of chemical substance (yeast gene YGR088W): 1.3
The level of expressed mRNA in the presence of chemical substance/The level of expressed mRNA in the absence of chemical substance (yeast gene YHL028W): 0.7
The level of expressed mRNA in the presence of chemical substance/The level of expressed mRNA in the absence of chemical substance (yeast gene YHL046C): 1.1
The level of expressed mRNA in the presence of chemical substance/The level of expressed mRNA in the absence of chemical substance (yeast gene YHR030C): 2.1
The level of expressed mRNA in the presence of chemical substance/The level of expressed mRNA in the absence of chemical substance (yeast gene YHR057C): 1.1
The level of expressed mRNA in the presence of chemical substance/The level of expressed mRNA in the absence of chemical substance (yeast gene YHR104W): 1.0
The level of expressed mRNA in the presence of chemical substance/The level of expressed mRNA in the absence of chemical substance (yeast gene YIL011W): 0.7
The level of expressed mRNA in the presence of chemical substance/The level of expressed mRNA in the absence of chemical substance (yeast gene YIL033C): 0.8
The level of expressed mRNA in the presence of chemical substance/The level of expressed mRNA in the absence of chemical substance (yeast gene YIR037W): 1.4
The level of expressed mRNA in the presence of chemical substance/The level of expressed mRNA in the absence of chemical substance (yeast gene YIR038C): 1.3
The level of expressed mRNA in the presence of chemical substance/The level of expressed mRNA in the absence of chemical substance (yeast gene YJL128C): 0.8
The level of expressed mRNA in the presence of chemical substance/The level of expressed mRNA in the absence of chemical substance (yeast gene YJL158C): 0.9
The level of expressed mRNA in the presence of chemical substance/The level of expressed mRNA in the absence of chemical substance (yeast gene YJL159W): 1.0
The level of expressed mRNA in the presence of chemical substance/The level of expressed mRNA in the absence of chemical substance (yeast gene YJL165C): 1.0
The level of expressed mRNA in the presence of chemical substance/The level of expressed mRNA in the absence of chemical substance (yeast gene YJR045C): 0.5
The level of expressed mRNA in the presence of chemical substance/The level of expressed mRNA in the absence of chemical substance (yeast gene YJR090C): 0.8
The level of expressed mRNA in the presence of chemical substance/The level of expressed mRNA in the absence of chemical substance (yeast gene YKL161C): 4.2
The level of expressed mRNA in the presence of chemical substance/The level of expressed mRNA in the absence of chemical substance (yeast gene YKL163W): 1.1
The level of expressed mRNA in the presence of chemical substance/The level of expressed mRNA in the absence of chemical substance (yeast gene YKL164C): 0.6
The level of expressed mRNA in the presence of chemical substance/The level of expressed mRNA in the absence of chemical substance (yeast gene YKL210W): 0.5
The level of expressed mRNA in the presence of chemical substance/The level of expressed mRNA in the absence of chemical substance (yeast gene YKR053C): 0.9
The level of expressed mRNA in the presence of chemical substance/The level of expressed mRNA in the absence of chemical substance (yeast gene YLL024C): 0.5
The level of expressed mRNA in the presence of chemical substance/The level of expressed mRNA in the absence of chemical substance (yeast gene YLL026W): 1.8
The level of expressed mRNA in the presence of chemical substance/The level of expressed mRNA in the absence of chemical substance (yeast gene YLL039C): 1.1
The level of expressed mRNA in the presence of chemical substance/The level of expressed mRNA in the absence of chemical substance (yeast gene YLL060C): 12.5
The level of expressed mRNA in the presence of chemical substance/The level of expressed mRNA in the absence of chemical substance (yeast gene YLR006C): 0.7
The level of expressed mRNA in the presence of chemical substance/The level of expressed mRNA in the absence of chemical substance (yeast gene YLR109W): 0.8
The level of expressed mRNA in the presence of chemical substance/The level of expressed mRNA in the absence of chemical substance (yeast gene YLR259C): 0.7
The level of expressed mRNA in the presence of chemical substance/The level of expressed mRNA in the absence of chemical substance (yeast gene YML007W): 0.9
The level of expressed mRNA in the presence of chemical substance/The level of expressed mRNA in the absence of chemical substance (yeast gene YML070W): 0.9
The level of expressed mRNA in the presence of chemical substance/The level of expressed mRNA in the absence of chemical substance (yeast gene YMR021C): 1.0
The level of expressed mRNA in the presence of chemical substance/The level of expressed mRNA in the absence of chemical substance (yeast gene YMR173W): 1.5
The level of expressed mRNA in the presence of chemical substance/The level of expressed mRNA in the absence of chemical substance (yeast gene YMR186W): 0.6
The level of expressed mRNA in the presence of chemical substance/The level of expressed mRNA in the absence of chemical substance (yeast gene YNL064C): 0.9
The level of expressed mRNA in the presence of chemical substance/The level of expressed mRNA in the absence of chemical substance (yeast gene YNL160W): 2.1
The level of expressed mRNA in the presence of chemical substance/The level of expressed mRNA in the absence of chemical substance (yeast gene YNL241C): 1.3
The level of expressed mRNA in the presence of chemical substance/The level of expressed mRNA in the absence of chemical substance (yeast gene YNR076W): 1.3
The level of expressed mRNA in the presence of chemical substance/The level of expressed mRNA in the absence of chemical substance (yeast gene YOL064C): 1.4
The level of expressed mRNA in the presence of chemical substance/The level of expressed mRNA in the absence of chemical substance (yeast gene YOL161C): 1.2
The level of expressed mRNA in the presence of chemical substance/The level of expressed mRNA in the absence of chemical substance (yeast gene YOR008C): 0.7
The level of expressed mRNA in the presence of chemical substance/The level of expressed mRNA in the absence of chemical substance (yeast gene YOR009W): 0.9
The level of expressed mRNA in the presence of chemical substance/The level of expressed mRNA in the absence of chemical substance (yeast gene YOR010C): 0.7
The level of expressed mRNA in the presence of chemical substance/The level of expressed mRNA in the absence of chemical substance (yeast gene YOR027W): 0.7
The level of expressed mRNA in the presence of chemical substance/The level of expressed mRNA in the absence of chemical substance (yeast gene YOR208W): 1.3
The level of expressed mRNA in the presence of chemical substance/The level of expressed mRNA in the absence of chemical substance (yeast gene YPL059W): 1.2
The level of expressed mRNA in the presence of chemical substance/The level of expressed mRNA in the absence of chemical substance (yeast gene YPL106C): 0.6
The level of expressed mRNA in the presence of chemical substance/The level of expressed mRNA in the absence of chemical substance (yeast gene YPL140C): 0.9
The level of expressed mRNA in the presence of chemical substance/The level of expressed mRNA in the absence of chemical substance (yeast gene YPL194W): 0.9
The level of expressed mRNA in the presence of chemical substance/The level of expressed mRNA in the absence of chemical substance (yeast gene YPL223C): 4.8
The level of expressed mRNA in the presence of chemical substance/The level of expressed mRNA in the absence of chemical substance (yeast gene YPL240C): 0.7
The level of expressed mRNA in the presence of chemical substance/The level of expressed mRNA in the absence of chemical substance (yeast gene YPR005C): 1.3
The level of expressed mRNA in the presence of chemical substance/The level of expressed mRNA in the absence of chemical substance (yeast gene YPR026W): 0.9
